Patent US6642004B2, “Method for measuring nucleotides” (FMC Corporation, priority 2000, dated 2003)
Read-outs that look alike come from different tables or passages of the source.

Columns and labels:
[1] = test system: Sf9 cells; assay: quantification of cAMP generated in Sf9 cells after compound treatment ([3H]cAMP competition for bovine adrenal binding protein, single vessel); format: cell-based
Method: On the day of the experiment, four-day sold Sf9 cells for use in the first step, with cell density at about 5,000,000 to about 6,000,000 cells, were spun in a Biofuge 15 centrifuge (available from Heneaus Instruments, Germany at 1310 rpm (500 g) for five minutes. After this time, the supernatant was discarded and sufficient Sf9 serum free medium (Sf900 II SFM) was added to the resulting cell pellet give a final concentration of 2,000,000 cells /ml. To these cells was added 0.02 ml of Solution J. Upon completion of addition, the resulting solution was gently mixed and then incubated at ambient temperature for 40 minutes, for use, below .
This method was performed in the manner disclosed in Example 1 except that synephrine was used rather than amitraz, and the concentrations of the synephrine dilutions were in the range of 0.00369 mM to 1.0 mM rather than 0.00123 mM to 0.3 mM.
This method was performed in the manner disclosed in Example 1 except that DL-octopamine was used rather than amitraz, and the concentrations of the DL-octopamine dilutions were in the range of about 0.0123 mM to about 3.0 mM rather than about 0.00123 mM to about 0.3 mM.
This method was performed in the manner disclosed in Example 1 except that DCDM was used rather than amitraz, and the concentrations of the DCDM dilutions were in the range of 0.000123 mM to about 0.03 mM rather than 0.00123 mM to about 0.3 mM.

[2] = test system: protein derived from a bovine adrenal gland
Method: Thereafter, 50 μl of the above-prepared Sf9 cell solution was added to all of the wells. The microplates were incubated at ambient temperature for 45 minutes. After this time, the Sf9 cells were lysed by adding 50 μl of Solution H. The microplates were incubated a second time at ambient temperature for 15 to 20 minutes. After this time, 25 μl of Solution R followed by 25 μl of Solution Q were added to the microplates. The microplates were incubated for a third time at ambient temperature with shaking at 125 rpm for 90 minutes. The resulting mixtures were filtered under reduced pressure through glass fiber filtermats, which were soaked in 500 ml of Solution G for about 30 minutes prior to use. The filtermats were washed for ten seconds with ice-cold Solution F and then, dried at 60° C. for 45 to 60 minutes in a Stabil-Therm® oven (available from Blue M Electric Co., Blue Island, Ill.). After this time, the amount of the radiolabeled 3′,5′-monophosphate/binding protein complex bound to the filtermats was determined by the aforesaid quantification method.

[3] = 0.000111 mM in the synephrine series

## CNCC(O)c1ccc(O)cc1 (centres unmarked) [Synephrine, synephrine]
[1]; [3]
  Specific Counts (dpm): 4516.2 dpm
  Total Counts (dpm) Determined: 5487 dpm
[1]; 0.000123 mM
  Specific Counts (dpm): 6081.7 dpm
  Total Counts (dpm) Determined: 7052.5 dpm
  inhibition at 0.123 µM: 3.1%
[1]; 0.00037 mM
  Specific Counts (dpm): 5260 dpm
  Total Counts (dpm) Determined: 6230.8 dpm
  inhibition at 0.37 µM: 16.2%
[1]; 0.00333 mM
  Specific Counts (dpm): 2732.7 dpm
  Total Counts (dpm) Determined: 3703.5 dpm
  inhibition at 3.33 µM: 56.4%
[1]; 0.011 mM
  Specific Counts (dpm): 1605.1 dpm
  Total Counts (dpm) Determined: 2575.9 dpm
  inhibition at 11 µM: 74.4%
[1]; 0.033 mM
  Specific Counts (dpm): 1074.6 dpm
  Total Counts (dpm) Determined: 2045.4 dpm
  inhibition at 33 µM: 82.9%

## CN=CNc1ccc(Cl)cc1C [DCDM, demethylchlordimeform]
[1]; 0.0000041 mM
  % Inhibition: 11.7%
  Specific Counts (dpm): 5687.8 dpm
  Total Counts (dpm) Determined: 6512.1 dpm
[1]; 0.0000123 mM
  % Inhibition: 23.1%
  Specific Counts (dpm): 4954.7 dpm
  Total Counts (dpm) Determined: 5779.0 dpm
[1]; 0.000037 mM
  % Inhibition: 38%
  Specific Counts (dpm): 3993.7 dpm
  Total Counts (dpm) Determined: 4818 dpm
[1]; 0.000111 mM
  % Inhibition: 58.3%
  Specific Counts (dpm): 2689.4 dpm
  Total Counts (dpm) Determined: 3513.7 dpm
[1]; 0.000333 mM
  % Inhibition: 77.1%
  Specific Counts (dpm): 1472.8 dpm
  Total Counts (dpm) Determined: 2297.1 dpm
[1]; 0.001 mM
  % Inhibition: 84.1%
  Specific Counts (dpm): 1026.2 dpm
  Total Counts (dpm) Determined: 1850.5 dpm

## Cc1ccc(/N=C/N(C)/C=N/c2ccc(C)cc2C)c(C)c1 [Amitraz, amitraz]
[1]; 0.000041 mM
  Specific Counts (dpm): 6020.4 dpm
  Total Counts (dpm) Determined: 6899.4 dpm
  inhibition at 0.041 µM: 2.5%
[1]; 0.000123 mM
  Specific Counts (dpm): 5130.2 dpm
  Total Counts (dpm) Determined: 6009.2 dpm
  inhibition at 0.123 µM: 16.9%
[1]; 0.00037 mM
  Specific Counts (dpm): 3939.2 dpm
  Total Counts (dpm) Determined: 4818.2 dpm
  inhibition at 0.37 µM: 36.2%
[1]; 0.00111 mM
  Specific Counts (dpm): 2562.5 dpm
  Total Counts (dpm) Determined: 3441.5 dpm
  inhibition at 1.11 µM: 58.5%
[1]; 0.00333 mM
  Specific Counts (dpm): 1428.2 dpm
  Total Counts (dpm) Determined: 2307.2 dpm
  inhibition at 3.33 µM: 76.9%
[1]; 0.01 mM
  Specific Counts (dpm): 1049.5 dpm
  Total Counts (dpm) Determined: 1928.5 dpm
  inhibition at 10 µM: 83%

## NCC(O)c1ccc(O)cc1 (racemic) [DL-octopamine]
[1]; 0.00041 mM
  Specific Counts (dpm): 5942.2 dpm
  Total Counts (dpm) Determined: 6899 dpm
  inhibition at 0.41 µM: 6.9%
[1]; 0.00123 mM
  Specific Counts (dpm): 5639.1 dpm
  Total Counts (dpm) Determined: 6595.9 dpm
  inhibition at 1.23 µM: 11.7%
[1]; 0.0037 mM
  Specific Counts (dpm): 4952.4 dpm
  Total Counts (dpm) Determined: 5909.2 dpm
  inhibition at 3.7 µM: 22.4%
[1]; 0.0111 mM
  Specific Counts (dpm): 3295.5 dpm
  Total Counts (dpm) Determined: 4252.3 dpm
  inhibition at 11.1 µM: 48.4%
[1]; 0.0333 mM
  Specific Counts (dpm): 1934.3 dpm
  Total Counts (dpm) Determined: 2891.1 dpm
  inhibition at 33.3 µM: 69.7%
[1]; 0.1 mM
  Specific Counts (dpm): 1267.9 dpm
  Total Counts (dpm) Determined: 2224.7 dpm
  inhibition at 100 µM: 80.1%

## Nc1ncnc2c1ncn2[C@@H]1O[C@@H]2COP(=O)(O)O[C@H]2[C@H]1O [cAMP Standard, cyclic adenosine 3′,5′-monophosphate]
[2]; 0.0000026 mM
  % Inhibition: 20.3%
  Specific Counts (dpm): 5398.5 dpm
  Total Counts (dpm) Determined: 5791 dpm
[2]; 0.0000078 mM
  % Inhibition: 37.5%
  Specific Counts (dpm): 4234.8 dpm
  Total Counts (dpm) Determined: 4627.3 dpm
[2]; 0.000023 mM
  % Inhibition: 61.7%
  Specific Counts (dpm): 2595.8 dpm
  Total Counts (dpm) Determined: 2988.3 dpm
[2]; 0.00007 mM
  % Inhibition: 78.8%
  Specific Counts (dpm): 1435.8 dpm
  Total Counts (dpm) Determined: 1828.3 dpm
[2]; 0.00021 mM
  % Inhibition: 90.4%
  Specific Counts (dpm): 648.8 dpm
  Total Counts (dpm) Determined: 1041.3 dpm
[2]; 0.00064 mM
  % Inhibition: 95.5%
  Specific Counts (dpm): 307.6 dpm
  Total Counts (dpm) Determined: 700.3 dpm
